# Data as given in PMC6768323, “Adverse Maternal, Fetal, and Postnatal Effects of Hexafluoropropylene Oxide Dimer Acid (GenX) from Oral Gestational Exposure in Sprague-Dawley Rats” (Environmental Health Perspectives, 2019).
# Target: T1, human GR (Homo sapiens, UniProt P04150)
# T1 construct: expressed in transfected cells; host or cells: CV-1 cells (ATCC CCL-70), adenoviral transduction
# T1 sequence (P04150 1-777): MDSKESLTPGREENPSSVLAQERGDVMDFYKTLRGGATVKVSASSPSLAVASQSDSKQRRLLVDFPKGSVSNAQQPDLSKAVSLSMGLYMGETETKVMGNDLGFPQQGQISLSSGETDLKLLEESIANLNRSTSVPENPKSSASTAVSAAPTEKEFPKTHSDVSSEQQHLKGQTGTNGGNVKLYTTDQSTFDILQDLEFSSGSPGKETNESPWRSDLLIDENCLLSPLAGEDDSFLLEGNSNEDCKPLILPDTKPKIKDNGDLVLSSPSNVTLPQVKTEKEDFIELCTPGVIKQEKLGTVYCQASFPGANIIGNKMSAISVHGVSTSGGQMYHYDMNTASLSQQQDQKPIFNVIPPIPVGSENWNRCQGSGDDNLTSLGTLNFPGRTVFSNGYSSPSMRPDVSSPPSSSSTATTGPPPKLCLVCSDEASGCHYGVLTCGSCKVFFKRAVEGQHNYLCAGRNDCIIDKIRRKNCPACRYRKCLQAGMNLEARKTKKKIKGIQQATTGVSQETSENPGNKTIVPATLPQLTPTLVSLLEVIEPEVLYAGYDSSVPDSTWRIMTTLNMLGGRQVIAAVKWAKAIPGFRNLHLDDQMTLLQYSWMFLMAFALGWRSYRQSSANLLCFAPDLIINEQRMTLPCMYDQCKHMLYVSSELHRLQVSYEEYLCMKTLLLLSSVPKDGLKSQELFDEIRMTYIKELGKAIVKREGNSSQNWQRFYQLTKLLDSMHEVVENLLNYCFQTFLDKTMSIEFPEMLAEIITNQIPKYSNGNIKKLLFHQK
# Test: GR transcriptional activation, CV-1 cells
# Assay type: cell-based
# Method: HFPO-DA was assessed for agonism and antagonism of transcriptional activation for estrogen (ER), androgen (AR), and glucocorticoid receptors (GR). Method details for in vitro transactivation assays for ER ([Wilson et al. 2004a]), AR ([Hartig et al. 2002], [2007]), and GR ([Conley et al. 2017]; [Medlock Kakaley et al. 2018]) have been previously reported. Briefly, for ER activity we utilized the stably transfected T47D-KBluc cell line [publicly available via American Type Culture Collection (ATCC); CRL-2865] according to protocols provided by ATCC with the modification of Dulbecco’s Modified Eagle Media (DMEM) as the cell culture media instead of Roswell Park Memorial Institute (RPMI) media. […] All assays were run in 96-well plates and luminescence was detected using a BMG Fluostar Omega luminometer (BMG Labtech) following 24-h exposure. […] Cellular cytotoxicity across the dosing range was determined for CV-1 cells utilizing the 3-(4,5-dimethylthiazol-2-yl)-2,5-diphenyltetrazolium bromide (MTT) dye ([Mosmann 1983]). HFPO-DA was analyzed using n=2–3 biological replicate assay plates (i.e., unique cell passages) with four technical replicates per treatment per plate. […]
structure (smiles),measurement,setting,value
"O=C(O)C(F)(OC(F)(F)C(F)(F)C(F)(F)F)C(F)(F)F (centres unmarked) [HFPO-DA, Hexafluoropropylene oxide dimer acid]",glucocorticoid receptor agonism,100 pM to 100 μM,no androgen or glucocorticoid receptor agonism
same,"glucocorticoid receptor antagonism, reduction in luciferase expression","100 μM, versus 1 nM Dex",28±3%
